Laboratory results reported in patent US20260234211A1, “POLYPEPTIDE HAVING MODIFIED STRUCTURE AND USE THEREOF” (Guangdong Raynovent Biotech Co., Ltd., priority 2023, published 2026).

Experiments:
GLP-1R = biological target: T1, GLP-1R (Homo sapiens, UniProt P43220); assay: In vitro GLP-1R agonistic activity test (cAMP, HEK293 cell line); assay type: cell-based; details: cAMP, HEK293 cells expressing GLP-1R; read-out: GLP-1 EC50
T1 construct: host or cells: HEK293
Protocol: (§1) The cell lines were constructed by Pharmaron Inc. See details in the table below.
(§2) The test compounds were diluted at a 5-fold dilution factor in 10 points, starting from an initial concentration of 200 nM.
(§3) 1) The cell lines were cultured respectively in complete medium at 37° C. and 5% CO2.
(§4) 1) Eu-cAMP tracer was freeze-thawed and diluted 50 fold with detection buffer; and Ulight-anti-cAMP was freeze-thawed and diluted 150 fold with detection buffer.
(§5) 3) 10 μL of Eu-cAMP tracer was added and then 10 μL of Uligh-anti-cAMP was added into experimental wells respectively.
(§6) 4) The reaction plate was centrifuged at 200 g at room temperature for 30 s and left for stand at 25° C. for 1 h.

GIPR = biological target: T2, GIPR (Homo sapiens, UniProt P48546); assay: In vitro GIPR agonistic activity test (cAMP, CHO cell line); assay type: cell-based; details: CHO cells expressing GIPR, read-out: GIP-1 EC50
T2 construct: host or cells: CHO
T2 sequence (P48546 22-466): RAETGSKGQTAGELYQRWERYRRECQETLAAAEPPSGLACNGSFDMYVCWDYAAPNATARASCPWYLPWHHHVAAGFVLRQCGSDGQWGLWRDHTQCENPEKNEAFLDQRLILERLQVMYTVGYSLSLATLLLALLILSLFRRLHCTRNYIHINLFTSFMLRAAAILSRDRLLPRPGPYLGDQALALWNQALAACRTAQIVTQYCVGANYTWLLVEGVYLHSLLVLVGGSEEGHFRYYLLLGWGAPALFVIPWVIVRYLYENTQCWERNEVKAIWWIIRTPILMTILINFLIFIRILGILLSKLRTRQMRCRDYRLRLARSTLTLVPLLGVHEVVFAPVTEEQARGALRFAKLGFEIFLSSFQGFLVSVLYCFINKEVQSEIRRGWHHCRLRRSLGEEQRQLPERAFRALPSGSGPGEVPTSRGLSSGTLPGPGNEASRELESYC
Protocol: as §1, §2, §3, §4, §5, §6

GCGR = biological target: T3, GCGR (Homo sapiens, UniProt P47871); assay: In vitro GCGR agonistic activity test (cAMP, HEK293 cell line); assay type: cell-based; details: cAMP, HEK293 cells expressing GCGR; read-out: GCG EC50
T3 construct: host or cells: HEK293
Protocol: as §1, §2, §3
2) After digestion with TrypLE, the cells were re-suspended in experimental buffer respectively, and inoculated in a CulturPlate-384 cell culture plate at a density of 2000 cells/well and at a volume of 15 μL/well.
as §4
2) 5 μL of the test compounds were added respectively into experimental wells of the CulturPlate-384 cell culture plate, which was centrifuged at 200 g for 30 s, and left for stand at 37° C. for 30 min.
as §5, §6
5) Envision 2105 was used to collect data, with excitation light at 340 nm and emission light at 665 nm and 615 nm.

[1] = Pharmacokinetic properties in Cynomolgus macaques; details: cynomolgus monkey, in vivo
Summary of the method: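 Non-juvenile male cynomolgus macaques were used, three per compound. Plasma was sampled from 1 h to 240 h after administration. Drug levels were quantified by LC-MS/MS and pharmacokinetic parameters calculated from the concentration–time data.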

[2] = Metabolic stability in human kidney S9; assay type: in vitro ADME; details: human, s9
Summary of the method: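 Human kidney S9 (1 mg/mL final) with NADPH and UDPGA cofactors, test compound at 1 μM final, incubated at 37°C. Aliquots quenched with acetonitrile at 0.5, 5, 15, 30 and 60 min; LC-MS/MS peak areas used to derive depletion slopes.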

DIO obesity mouse model = assay: Pharmacodynamics in DIO obesity mouse model; assay type: in vivo; details: DIO mice
Excerpt: Experimental purpose: To evaluate the effects of multiple administration of the test substance (compound) on body weight and glucolipid metabolism.
In this experiment, mice were used as test animals, which were induced with a high-fat diet (Research Diets: D12492) from 4-5 weeks old for 8 weeks, and the animals were grouped according to their body weights and fasting blood glucose levels, with the average body weight of the model animals being 47.2±0.3 g, the average body weight of the control animals being 27.9±0.3 g, the average fasting blood glucose of the model animals being 8.8±0.2 mmol/L, and the average fasting blood glucose of the control animals being 6.0±0.2 mmol/L. There were six animals in each group. The animals were administered immediately after grouping and were administered by subcutaneous injection every 3 days for 22 consecutive days. Both the normal control and model groups were given with vehicle (20 mM citrate buffer). Body weight and food intake were measured twice a week. Fasting blood glucose was tested on Days 10 and 20, OGTT test was performed on Day 20, and blood was collected on Day 23 to test the liver function indicators (ALT, AST, ALP) and serum lipid metabolism indicators (TC, TG, HDL, LDL). Liver tissues were taken to calculate organ indexes, and liver lipid metabolism indicators (hepatic TC, TG) were detected. The liver tissues were examined pathologically (HE, Oil Red) to evaluate the effects of the test substances on body weight and glucolipid metabolism in a high-fat diet-induced obesity mouse model.
The experimental data of each group of animals was described as mean±standard error (X±SEM). P<0.05 indicated the statistically significant difference. All statistical analysis was completed using Graphpad 8.0 software.

T1 sequence (P43220 24-463, species assumed): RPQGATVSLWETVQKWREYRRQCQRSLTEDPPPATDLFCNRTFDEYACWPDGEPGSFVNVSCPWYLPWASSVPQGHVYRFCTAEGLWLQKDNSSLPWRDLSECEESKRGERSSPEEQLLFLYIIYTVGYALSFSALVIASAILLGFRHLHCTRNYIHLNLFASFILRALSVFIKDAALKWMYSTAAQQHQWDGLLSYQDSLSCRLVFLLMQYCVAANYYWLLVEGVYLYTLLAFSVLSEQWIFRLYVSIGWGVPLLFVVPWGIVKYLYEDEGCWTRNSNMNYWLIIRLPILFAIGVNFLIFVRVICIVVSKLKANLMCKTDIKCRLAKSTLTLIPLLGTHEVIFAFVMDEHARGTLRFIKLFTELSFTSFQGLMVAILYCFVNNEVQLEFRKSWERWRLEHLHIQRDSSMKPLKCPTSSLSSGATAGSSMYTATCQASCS
T3 sequence (P47871 26-477, species assumed): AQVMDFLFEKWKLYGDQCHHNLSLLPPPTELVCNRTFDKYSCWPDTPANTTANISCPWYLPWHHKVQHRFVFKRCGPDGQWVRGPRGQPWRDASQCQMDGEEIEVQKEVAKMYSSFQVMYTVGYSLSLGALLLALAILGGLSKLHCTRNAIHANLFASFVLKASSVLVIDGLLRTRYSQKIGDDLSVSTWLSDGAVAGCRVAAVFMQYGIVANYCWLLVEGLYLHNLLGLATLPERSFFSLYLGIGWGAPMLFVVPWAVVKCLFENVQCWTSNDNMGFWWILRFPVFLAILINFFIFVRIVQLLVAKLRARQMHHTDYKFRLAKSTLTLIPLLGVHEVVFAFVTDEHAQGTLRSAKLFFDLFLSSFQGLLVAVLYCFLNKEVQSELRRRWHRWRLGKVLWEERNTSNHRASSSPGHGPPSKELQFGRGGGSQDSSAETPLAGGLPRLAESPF

Work on `CC[C@H](C)[C@H](NC(=O)[C@H](Cc1ccccc1)NC(=O)[C@H](C)NC(=O)C(C)(C)NC(=O)[C@H](CCC(N)=O)NC(=O)[C@H](C)NC(=O)[C@H](CCCCNC(=O)COCCOCCNC(=O)CC[C@H](NC(=O)CCCCCCCCCCCCCCCCCCC(=O)O)C(=O)O)NC(=O)[C@H](CCCCN)NC(=O)[C@H](CC(=O)O)NC(=O)[C@H](CC(C)C)NC(=O)[C@](C)(CC(C)C)NC(=O)[C@@H](NC(=O)[C@H](CO)NC(=O)[C@H](Cc1ccc(O)cc1)NC(=O)[C@H](CC(=O)O)NC(=O)[C@H](CO)NC(=O)[C@@H](NC(=O)[C@H](Cc1ccccc1)NC(=O)[C@@H](NC(=O)CNC(=O)[C@H](CCC(N)=O)NC(=O)C(C)(C)NC(=O)[C@@H](N)Cc1ccc(O)cc1)[C@@H](C)O)[C@@H](C)O)[C@@H](C)CC)C(=O)N[C@@H](CCC(=O)O)C(=O)N[C@@H](Cc1ccc(O)cc1)C(=O)N[C@@H](CC(C)C)C(=O)N[C@@H](CC(C)C)C(=O)N[C@@H](CCC(=O)O)C(=O)NCC(=O)NCC(=O)N1CCC[C@H]1C(=O)N[C@@H](CO)C(=O)N[C@@H](CO)C(=O)NCC(=O)N[C@@H](C)C(=O)N1CCC[C@H]1C(=O)N1CCC[C@H]1C(=O)N1CCC[C@H]1C(=O)N[C@@H](CO)C(N)=O` [LY3437943, reference compound] yielded an EC50 (GLP-1R) of 14 pM, an EC50 (GIPR) of 1 pM and an EC50 (GCGR) of 31 pM. It also gave an AUC(0-inf) [1] of 2.93 µM·h, an AUC(0-t) [1] of 2.7 µM·h and a Cmax [1] of 22.1 nM. It also gave a Tmax [1] of 29.3 h, a half-life [1] of 58.8 h and a half-life [2] greater than 3.08 h. For the same compound, the microsomal CLint [2] was less than 3.75 µL/min/mg, the Liver-body ratio (DIO obesity mouse model; 10 nmol/kg subcutaneous every 3 days) was 0.032 ± 0.003 g/g and the “Change rate of body weight on Day 22” value (DIO obesity mouse model; 10 nmol/kg subcutaneous every 3 days, first experiment) was −29.19 ± 2.94%. The “Change rate of body weight on Day 22” value (DIO obesity mouse model; 10 nmol/kg, second experiment with similar protocol) was −26.32 ± 1.91%, the “Fasting blood glucose, Day 0” value (DIO obesity mouse model; Day 0 (at grouping), 10 nmol/kg group) was 8.2 ± 0.3 mmol/L and the “Fasting blood glucose, Day 10” value (DIO obesity mouse model; Day 10, 10 nmol/kg subcutaneous every 3 days) was 5.2 ± 0.9 mmol/L. The “Fasting blood glucose, Day 20” value (DIO obesity mouse model; Day 20, 10 nmol/kg subcutaneous every 3 days) was 6.2 ± 0.4 mmol/L.
